Laboratory results as given in patent US11292807B2 (OCEANS LTD., priority 2015, dated 2022).

System: U373 (glioblastoma-astrocytoma)
Test: CIMA assay, cell viability, U373
[1] = U373, 1 ug/mL, listed as 169-14-15-4
[2] = U373, 1 ug/mL, listed as 174-13-14-3
[3] = U373, 10 ug/mL, listed as 169-14-15-4
[4] = U373, 10 ug/mL, listed as 174-13-14-3
[5] = U373, 50 ug/mL, listed as 169-14-15-4
[6] = U373, 50 ug/mL, listed as 174-13-14-3

Protocol: Stock solutions of the extracts were prepared in dimethylsulfoxide (DMSO) at 10 mg/mL and stored in 200 μl aliquots at −20° C. until analysis. This preparation ensured that the DMSO delivered to cells in culture never exceeded 1%.
Prepared extracts were assessed following chronic exposure conditions in which cells were seeded at 2×10^3 cells/well (96 well-plate) and incubated with test compounds for 72 h. Each compound was evaluated over a range of concentrations (0, 10, 25, 50 or 100 μg/ml). Cell proliferation was initially assessed using a standard colorimetric indicator of metabolic activity (CIMA) assay. In this assay, tetrazole reduction was evaluated as a measure of metabolic function that evaluates mitochondrial activity to determine the extent of cell proliferation within a culture. This assay is based on the reduction of yellow tetrazolium salt to purple formazan by mitochondrial reductases enzyme in viable cells, resulting in a color changed that confers a change in absorbance.

## CC/C=C\C/C=C\C/C=C\C/C=C\C/C=C\CCCC(=O)OCC(COC1OC(CO)C(O)C(O)C1O)OC(=O)CCCCCCCCCCCCCCC (stereo not drawn) [Compound 2, MGDG C20:5/C16:0]
Homo sapiens, U373 MG, read-out: Average cell viability, U373, 100 ug/mL
  viability at 100 µg/mL: 8%
[1]
  Average cell viability: 106%
  Fold change in viability AVG: 1.08
[2]
  Average cell viability: 85%
  Fold change in viability AVG: 0.86
[3]
  Average cell viability: 94%
  Fold change in viability AVG: 0.95
[4]
  Average cell viability: 73%
  Fold change in viability AVG: 0.74
[5]
  Average cell viability: 30%
  Fold change in viability AVG: 0.30
[6]
  Average cell viability: 13%
  Fold change in viability AVG: 0.13
U373, sample at 1 ug/mL, listed as 169-14-15-4
  U373 AVG: 1.08
U373, sample at 1 ug/mL, listed as 174-13-14-3
  U373 AVG: 0.86
U373, sample at 10 ug/mL, listed as 169-14-15-4
  U373 AVG: 0.95
U373, sample at 10 ug/mL, listed as 174-13-14-3
  U373 AVG: 0.74
U373, sample at 50 ug/mL, listed as 169-14-15-4
  U373 AVG: 0.30
U373, sample at 50 ug/mL, listed as 174-13-14-3
  U373 AVG: 0.13
U373, sample at 100 ug/mL
  U373 AVG: 0.08
U373, 100 ug/mL
  Fold change in viability AVG: 0.08
